Values of other authors as cited in patent US20070105828A1, “Novel polymorph form M of mifepristone and process for its preparation” (Glenmark Pharmaceuticals Limited, priority 2005, published 2007).

Target: glucocorticoid receptor (Homo sapiens, UniProt P04150)
Conditions: relative to dexamethasone; background statement

Sequence of glucocorticoid receptor (P04150 whole entry, species assumed): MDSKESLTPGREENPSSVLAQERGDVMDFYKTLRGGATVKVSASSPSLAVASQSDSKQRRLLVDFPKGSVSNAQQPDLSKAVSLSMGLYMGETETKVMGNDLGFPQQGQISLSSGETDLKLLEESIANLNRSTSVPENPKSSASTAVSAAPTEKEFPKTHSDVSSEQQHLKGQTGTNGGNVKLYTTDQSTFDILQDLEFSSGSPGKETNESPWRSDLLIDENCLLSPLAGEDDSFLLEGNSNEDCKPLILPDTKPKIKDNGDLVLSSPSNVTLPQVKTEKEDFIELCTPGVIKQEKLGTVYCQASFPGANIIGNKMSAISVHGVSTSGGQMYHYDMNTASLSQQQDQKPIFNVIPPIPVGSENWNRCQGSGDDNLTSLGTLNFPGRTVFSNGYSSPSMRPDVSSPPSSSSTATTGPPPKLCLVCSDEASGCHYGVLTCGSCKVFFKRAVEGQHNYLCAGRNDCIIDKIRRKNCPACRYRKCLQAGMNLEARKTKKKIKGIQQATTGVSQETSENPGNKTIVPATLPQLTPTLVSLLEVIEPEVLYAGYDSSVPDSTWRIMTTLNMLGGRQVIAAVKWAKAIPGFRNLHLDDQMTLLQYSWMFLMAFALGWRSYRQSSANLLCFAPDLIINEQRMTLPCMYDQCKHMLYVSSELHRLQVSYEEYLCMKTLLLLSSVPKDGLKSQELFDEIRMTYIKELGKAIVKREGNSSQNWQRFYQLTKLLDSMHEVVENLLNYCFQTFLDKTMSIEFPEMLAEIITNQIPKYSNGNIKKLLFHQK

**Q.** With `CC#C[C@]1(O)CC[C@H]2[C@@H]3CCC4=CC(=O)CCC4=C3[C@@H](c3ccc(N(C)C)cc3)C[C@@]21C` [Mifepristone, (11β,17β)-11-[4-(N,N-dimethylamino)phenyl]-17-hydroxy-17-(1-propynyl)estra-4,9-diene-3-one] as the compound, how does the “affinity for the glucocorticoid receptor compared with dexamethasone” value read?
**A.** three times greater than that of dexamethasone
